According to paper PMC7865276, “Chemical Constituents of the Bulbs of Scilla peruviana and Their Pancreatic Lipase Inhibitory Activity” (International Journal of Molecular Sciences, 2021):

Tests used:
[1] = test system: pancreatic lipase; parameters: method as in PMID 25389058; conditions: cited from earlier work
[2] = test system: ddY mice; assay: serum TG levels in intralipid (soybean oil)-loaded mice; assay type: in vivo; conditions: for serum TG levels: 15 min before intralipid loading, 120 min after intralipid, mean ± S.E.M., n = 5
Description: Male ddY mice, 5 weeks old, were purchased from Japan Laboratory Animals and maintained in the animal facility of the Tokyo University of Pharmacy and Life Sciences. The animals were housed in cages under controlled temperature (23 ± 2 °C) and a 12 h light-dark cycle. The mice were allowed free access to breeding food and water. All experiments were approved by the Tokyo University of Pharmacy and Life Sciences Animal Use Committee (approval number: P17-84, date of approval: 24 April 2017).
After 5 weeks, mice were fasted overnight and randomly divided into five groups (n = 5). The body weight of each mouse was measured (24.0–30.7 g/body). 0.5% Carboxymethyl cellulose (CMC; Wako Pure Chemical Industries), cetilistat (Tokyo Kasei, purity > 98.0%; 180 mg/kg), or compound 6 (150 or 300 mg/kg) were prepared for test samples and the intralipid (soybean oil 20% emulsion, 20 mL/kg, Sigma-Aldrich) was used for the high-fat diet. Single dose of 0.5% CMC, cetilistat, and compound 6 (150 or 300 mg/kg) were orally administered to mice in each group (n = 5) 15 min before the intralipid loading. Blood samples were collected from the abdominal vena cava 120 min after the intralipid-loaded treatment and centrifuged (700× g for 10 min) to obtain serum samples. The TG levels in serum were measured using a commercially available kit (Wako Triglyceride E-Test kit, Wako Pure Chemical Industries).

[3] = target: T1, lipase from porcine pancreas, TYPE II (Sus scrofa, UniProt P00591); assay: pancreatic lipase inhibitory activity (Lipase Kit S, BALB substrate); assay type: biochemical; conditions: for pancreatic lipase inhibitory activity (in words): in vitro, 0.45, 0.90 and 4.5 mM
T1 construct: lipase from porcine pancreas, TYPE II; purchased Sigma-Aldrich; host or cells: porcine pancreas (tissue preparation)
T1 sequence (P00591 1-450): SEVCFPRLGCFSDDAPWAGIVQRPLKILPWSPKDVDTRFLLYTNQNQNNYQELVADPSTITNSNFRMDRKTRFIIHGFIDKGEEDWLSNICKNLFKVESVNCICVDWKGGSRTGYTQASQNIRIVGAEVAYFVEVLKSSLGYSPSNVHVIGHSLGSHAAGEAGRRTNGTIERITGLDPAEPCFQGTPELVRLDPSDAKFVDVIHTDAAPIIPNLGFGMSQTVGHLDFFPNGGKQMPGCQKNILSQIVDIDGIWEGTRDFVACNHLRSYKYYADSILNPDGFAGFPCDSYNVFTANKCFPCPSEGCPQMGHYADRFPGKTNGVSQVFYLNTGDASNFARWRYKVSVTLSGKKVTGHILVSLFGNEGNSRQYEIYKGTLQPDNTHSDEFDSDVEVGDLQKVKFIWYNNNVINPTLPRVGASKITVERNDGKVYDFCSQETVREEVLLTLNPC
Description: The pancreatic lipase activity of each test sample was measured by a modified method using a commercially available kit (Lipase Kit S, Dainippon Pharmaceutical). The purities of test samples were confirmed by HPLC analysis (Figure S6 in Supplementary Materials). Cetilistat was used as a positive control at 0.1, 1.0, and 10 μM. Test sample was dissolved in EtOH–H2O (1:1) and diluted to concentrations of 0.45, 0.90, and 4.5 mM, respectively. Lipase (lipase from porcine pancreas, TYPE II, 100–500 units/mg) was purchased from Sigma-Aldrich. Briefly, test sample was mixed with enzyme buffer, and incubated for 5 min at 30 °C. After incubation, 2,3-dimercapto-1-propanol tributyrate (BALB) as substrate was added and the enzyme reaction was proceeded for 30 min at 30 °C. Lipase activity was determined by measuring the absorbance of the resulting 5-thio-2-nitrobenzoate anion at 412 nm using a microplate reader. The inhibition rate was calculated by the following formula: Inhibition rate (%) = [1 − (ΔAsample − ΔAblank)/(ΔAcontrol − ΔAblank)] × 100. The inhibitory concentration (IC50) was calculated by log-Probit analysis.

[4] = test system: cyclic adenosine monophosphatase (cAMP) phosphodiesterase; parameters: method as in PMID 8149459, doi:10.1246/cl.1992.1863; conditions: cited from earlier work
[5] = test system: mice; parameters: method as in earlier work; conditions: oral administration; cited from earlier work
[6] = mean ± S.E.M. of three experiments in triplicate, tested at 0.45, 0.90, 4.5 mM

Compound | pancreatic lipase inhibitory activity (in words) [3] | IC50 [3, 6] | other results
CC(C)=CCCC(C(=O)O)C1CCC2(C)C3CCC4C(C)(CCC(O)C4(C)C)C3=CCC12C (stereo not drawn) [3β-Hydroxylanosta 9,24-dien-21-oic acid] | – | – | pancreatic lipase inhibition (in words) [1]: inhibit the pancreatic lipase activity
CCCCCCCCCCCCCCCCOc1nc2ccc(C)cc2c(=O)o1 [Cetilistat, reference compound] | – | – | serum TG levels ([2]; 180 mg/kg oral): 130.2 ± 23.4 mg/dL; IC50 ([3]; positive control, tested at 0.1, 1.0, 10 μM, mean ± S.E.M.): 1.43 ± 0.052 µM
COC(=O)/C(C)=C/[C@H]1[C@H](OC)O[C@H]2C[C@@]3(C)C4=C(CC[C@]3(C)[C@@]2(O)[C@@H]1C)[C@@]1(C)CC[C@H](O[C@@H]2O[C@H](CO)[C@@H](O)[C@H](O)[C@H]2O[C@@H]2O[C@H](CO)[C@@H](O)[C@H](O)[C@H]2O[C@@H]2O[C@@H](C)[C@H](O)[C@@H](O)[C@H]2O)C(C)(C)[C@@H]1CC4 [Compound 2, 23α-methyl-peruvianoside A] | significant pancreatic lipase inhibitory activity in a concentration-dependent manner | 840 ± 29 µM | –
COC(=O)/C(C)=C/[C@H]1[C@@H](OC)O[C@H]2C[C@@]3(C)C4=C(CC[C@]3(C)[C@@]2(O)[C@@H]1C)[C@@]1(C)CC[C@H](O[C@@H]2O[C@H](CO)[C@@H](O)[C@H](O)[C@H]2O[C@@H]2O[C@H](CO)[C@@H](O)[C@H](O)[C@H]2O[C@@H]2O[C@@H](C)[C@H](O)[C@@H](O)[C@H]2O)C(C)(C)[C@@H]1CC4 [Compound 3, 23β-methyl-peruvianoside A] | significant pancreatic lipase inhibitory activity in a concentration-dependent manner | 590 ± 20 µM | –
COC(=O)/C(C)=C/[C@H]1[C@H](O)O[C@H]2C[C@@]3(C)C4=C(CC[C@]3(C)[C@@]2(O)[C@@H]1C)[C@@]1(C)CC[C@H](O[C@@H]2O[C@H](CO)[C@@H](O)[C@H](O)[C@H]2O[C@@H]2O[C@H](CO)[C@@H](O)[C@H](O)[C@H]2O[C@@H]2O[C@@H](C)[C@H](O)[C@@H](O)[C@H]2O)C(C)(C)[C@@H]1CC4 [Compound 4, peruvianoside A] | – | 1420 ± 40 µM | cAMP phosphodiesterase inhibitory activity (in words) [4]: show cyclic adenosine monophosphatase (cAMP) phosphodiesterase inhibitory activity
COC(=O)/C(C)=C/[C@H]1[C@H](O)O[C@H]2C[C@@]3(C)C4=C(CC[C@]3(C)[C@@]2(O)[C@@H]1C)[C@@]1(C)CC[C@H](O[C@@H]2O[C@H](CO)[C@@H](O)[C@H](O)[C@H]2O[C@@H]2O[C@H](CO)[C@@H](O)[C@H](O)[C@H]2O[C@@H]2O[C@@H](C)[C@H](O)[C@@H](O)[C@H]2O)[C@](C)(CO)[C@@H]1CC4 [Compound 5, peruvianoside B] | – | 1400 ± 35 µM | –
CC1CC2(CC(C)C3(CCC4(C)C5=C(CCC43C)C3(C)CCC(OC4OC(COC6OCC(O)C(O)C6OC6OC(CO)C(O)C(O)C6OC6OC(C)C(O)C(O)C6O)C(O)C(O)C4O)C(C)(CO)C3CC5)O2)OC1=O [Compound 6, (23S,25R)-3β,31-dihydroxy-17α,23-epoxy-5α-lanost-8-en-23,26-olactone3β-O-[O-α-L-rhamnopyranosyl-(1→2)-O-β-D-gluco-pyranosyl-(1→2)-O-α-L-arabinopyranosyl-(1→6)-O-β-D-glucopyranoside]] | significant pancreatic lipase inhibitory activity in a concentration-dependent manner | 810 ± 29 µM | serum TG levels ([2]; 300 mg/kg single oral dose): 90.9 ± 16.2 mg/dL; effect on serum triglyceride levels (in words) ([2]; oral, 150 or 300 mg/kg, soybean oil-loaded mice): reduced serum triglyceride levels in a dose-dependent manner
CC1CC2(CC(C)C3(CCC4(C)C5=C(CCC43C)C3(C)CCC(OC4OC(COC6OCC(O)C(O)C6OC6OC(CO)C(O)C(O)C6OC6OC(C)C(O)C(O)C6O)C(O)C(O)C4O)C(CO)(CO)C3CC5)O2)OC1=O [Compound 7, (23S,25R)-3β,30,31-trihydroxy-17α,23-epoxy-5α-lanost-5-en-23,26-olactone3-O-[O-α-L-rhamno-pyranosyl-(1→2)-O-β-D-glucopyranosyl-(1→2)-O-α-L-arabinopyranosyl-(1→6)-O-β-D-glucopyranoside]] | – | 1100 ± 15 µM | –
CCC(=O)[C@@H]1C[C@@H](C)[C@]2(CC[C@@]3(C)C4=C(CC[C@@]32C)[C@@]2(C)CC[C@H](O[C@@H]3O[C@H](CO[C@@H]5OC[C@H](O)[C@H](O)[C@H]5O[C@@H]5O[C@H](CO)[C@@H](O)[C@H](O[C@@H]6O[C@H](CO)[C@@H](O)[C@H](O)[C@H]6O)[C@H]5O[C@@H]5O[C@@H](C)[C@H](O)[C@@H](O)[C@H]5O)[C@@H](O)[C@H](O)[C@H]3O)[C@](C)(CO)[C@@H]2CC4)O1 [Compound 9, 15-deoxy-eucosterol3β-[O-β-D-glucopyranosyl-(1→3)-O-[α-L-rhamnopyranosyl-(1→2)]-β-D-glucopyranosyl-(1→2)-O-α-L-arabinopyranosyl-(1→6)-O-β-D-glucopyranoside]] | – | 910 ± 23 µM | –
CCC(=O)[C@@H]1C[C@@H](C)[C@]2(CC[C@@]3(C)C4=C(CC[C@@]32C)[C@@]2(C)CC[C@H](O[C@@H]3O[C@H](CO[C@@H]5OC[C@H](O)[C@H](O)[C@H]5O[C@@H]5O[C@H](CO)[C@@H](O)[C@H](O[C@@H]6O[C@H](CO)[C@@H](O)[C@H](O)[C@H]6O)[C@H]5O[C@@H]5O[C@@H](C)[C@H](O)[C@@H](O)[C@H]5O)[C@@H](O)[C@H](O)[C@H]3O)C(CO)(CO)[C@@H]2CC4)O1 [Compound 10, 15-deoxy-30-hydroxyeucosterol3β-[O-β-D-glucopyranosyl-(1→3)-O-[α-L-rhamnopyranosyl-(1→2)]-β-D-glucopyranosyl-(1→2)-O-α-L-arabinopyranosyl-(1→6)-O-β-D-glucopyranoside]] | – | 1130 ± 62 µM | –
C[C@@H]1O[C@@H](O[C@H]2[C@H](O[C@H]3[C@H](OC[C@H]4O[C@@H](O[C@H]5CC[C@]6(C)C7=C(CC[C@H]6[C@@]5(C)CO)[C@]5(C)CC[C@@]6(OC(=O)C[C@H]6C)[C@@]5(C)CC7)[C@H](O)[C@@H](O)[C@@H]4O)OC[C@H](O)[C@@H]3O)O[C@H](CO)[C@@H](O)[C@@H]2O[C@@H]2O[C@H](CO)[C@@H](O)[C@H](O)[C@H]2O)[C@H](O)[C@H](O)[C@H]1O [Compound 11, scillanostaside G] | inhibited the pancreatic lipase activity in an inverted dose-dependent manner | > 4500 µM | –
C=C1C(O)CCC2C1(C)CCC1C2(C)CCC2(C)C3C(C(C)C)CCC3(C)CCC12C (stereo not drawn) [cymbopogonol] | – | – | effect on serum TG levels (in words) [5]: reduced serum TG levels in mice
scillasaponin B | – | – | cAMP phosphodiesterase inhibitory activity (in words) [4]: show cyclic adenosine monophosphatase (cAMP) phosphodiesterase inhibitory activity
